Reference: publication PMC5572662 (ChemMedChem, 2017)
“Also recorded” adds a separate entry of the source. Square brackets hold non-standard residues; d marks the D form. Peptide text beside a SMILES is read from it. * marks the point of attachment. NH(4-amidinobenzyl) = N=C(N)c1ccc(CN*)cc1; Tle = CC(C)(C)[C@H](N)C(=O)O; PhAc = O=C(Cc1ccccc1)*

Columns and labels:
[1] = test system: E3-E2 (p62) cleavage; assay: Western blot of E3-E2; type: cell-based, Semliki Forest virus; details: 25 μM inhibitor, BHK-21 cells, SFV MOI 10, 8 h post-infection
[2] = test system: chikungunya virus (CHIKV); assay: Chikungunya virus replication in BHK-21 cells, titers by plaque assay; type: cell-based; details: 25 μM inhibitor, MOI 0.1, plaque assay 24 h post-infection
[3] = test system: Semliki Forest virus (SFV); assay: Semliki Forest virus replication in BHK-21 cells, titers by plaque assay; type: cell-based; details: for reduction of SFV virus titer: 25 μM inhibitor, MOI 0.01, plaque assay 24 h post-infection
[4] = biological target: recombinant soluble human furin (Homo sapiens, UniProt P09958); assay: Enzyme kinetic measurements with recombinant soluble human furin; type: biochemical; details: for fold improved Ki (inhibition constant) versus parent analogue: 20 versus 18 (P3 Val to Tle), 21 and 22 versus the P2 Lys analogues; for Ki: Furin Ki, as given in the text in nM
Chain of recombinant soluble human furin (P09958 108-715 limits assumed): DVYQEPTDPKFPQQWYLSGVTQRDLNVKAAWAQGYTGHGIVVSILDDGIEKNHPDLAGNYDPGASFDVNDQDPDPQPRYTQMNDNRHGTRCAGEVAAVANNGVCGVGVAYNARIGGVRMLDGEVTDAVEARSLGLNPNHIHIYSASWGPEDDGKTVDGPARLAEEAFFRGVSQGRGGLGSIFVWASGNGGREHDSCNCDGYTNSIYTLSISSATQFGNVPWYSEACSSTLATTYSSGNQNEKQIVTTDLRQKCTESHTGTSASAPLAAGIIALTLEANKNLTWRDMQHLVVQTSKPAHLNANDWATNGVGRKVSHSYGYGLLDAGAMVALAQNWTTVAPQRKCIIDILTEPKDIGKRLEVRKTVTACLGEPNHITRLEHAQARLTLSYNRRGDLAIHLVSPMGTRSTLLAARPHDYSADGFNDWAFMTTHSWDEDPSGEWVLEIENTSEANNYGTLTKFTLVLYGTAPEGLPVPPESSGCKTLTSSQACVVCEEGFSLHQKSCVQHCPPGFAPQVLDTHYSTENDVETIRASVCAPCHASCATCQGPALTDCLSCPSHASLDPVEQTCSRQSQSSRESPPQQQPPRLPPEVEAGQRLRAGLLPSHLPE

[5] = test system: Pseudomonas aeruginosa exotoxin A; details: living rodents ref 8; cited from earlier work
[6] = test system: anthrax toxin; details: living rodents ref 8; cited from earlier work

CC(C)[C@H](NC(=O)[C@H](CCCNC(=N)N)NC(=O)[C@H](CCCNC(=N)N)NC(=O)[C@H](N)CCCNC(=N)N)C(=O)N[C@@H](CCCNC(=N)N)C(=O)NCc1ccc(C(=N)N)cc1 [Compound 9, H-DArg-Arg-Arg-Val-Arg-4-Amba] (H-[dR]RRVR-{NH(4-amidinobenzyl)})
inhibition of E3-E2 (p62) cleavage [1]: Inhibition of E3-E2 (p62) cleavage
reduction of CHIKV virus titer [2]: strongly reduced titers
reduction of SFV virus titer [3]: less than one order of magnitude; also recorded: strongly reduced titers
concentration dependence of inhibition of SFV replication ([3]; MOI 0.01, 24 h post-infection (Figure 4)): concentration-dependent inhibition of SFV replication

CC(C)[C@H](NC(=O)[C@H](CCCNC(=N)N)NC(=O)[C@H](CCCNC(=N)N)NC(=O)[C@H](CCCNC(=N)N)NC(=O)Cc1ccccc1)C(=O)N[C@@H](CCCNC(=N)N)C(=O)NCc1ccc(C(=N)N)cc1 [Compound 5, Phac-Arg-Arg-Arg-Val-Arg-4-Amba] (PhAc-RRRVR-{NH(4-amidinobenzyl)})
reduction of SFV virus titer [3]: less than one order of magnitude

CC(=O)N[C@@H](CC(C)C)C(=O)N[C@@H](CC(C)C)C(=O)N[C@@H](CC(C)C)C(=O)N[C@@H](CC(C)C)C(=O)N[C@@H](CCCNC(=N)N)C(=O)N[C@H](C(=O)N[C@@H](CCCNC(=N)N)C(=O)NCc1ccc(C(=N)N)cc1)C(C)C [Compound 21, Ac-Leu-Leu-Leu-Leu-Arg-Val-Arg-4-Amba] (Ac-LLLLRVR-{NH(4-amidinobenzyl)})
fold improved Ki (inhibition constant) versus parent analogue [4]: ~ 2 fold

CC(=O)N[C@H](CC(C)C)C(=O)N[C@@H](CC(C)C)C(=O)N[C@@H](CC(C)C)C(=O)N[C@@H](CC(C)C)C(=O)N[C@@H](CCCNC(=N)N)C(=O)N[C@H](C(=O)N[C@@H](CCCCN)C(=O)NCc1ccc(C(=N)N)cc1)C(C)C [Compound 19, Ac-DLeu-Leu-Leu-Leu-Arg-Val-Lys-4-Amba, reference compound] (Ac-[dL]LLLRVK-{NH(4-amidinobenzyl)})
Ki [4]: ~0.5 nM

CC(=O)N[C@@H](CC(C)C)C(=O)N[C@@H](CC(C)C)C(=O)N[C@@H](CC(C)C)C(=O)N[C@@H](CC(C)C)C(=O)N[C@@H](CCCNC(=N)N)C(=O)N[C@H](C(=O)N[C@@H](CCCNC(=N)N)C(=O)NCc1ccc(C(=N)N)cc1)C(C)(C)C [Compound 22, Ac-Leu-Leu-Leu-Leu-Arg-Tle-Arg-4-Amba] (Ac-LLLLR[Tle]R-{NH(4-amidinobenzyl)})
fold improved Ki (inhibition constant) versus parent analogue [4]: ~ 2 fold

CC(=O)N[C@@H](CC(C)C)C(=O)N[C@@H](CC(C)C)C(=O)N[C@@H](CC(C)C)C(=O)N[C@@H](CC(C)C)C(=O)N[C@@H](CCCNC(=N)N)C(=O)N[C@H](C(=O)N[C@@H](CCCCN)C(=O)NCc1ccc(C(=N)N)cc1)C(C)(C)C [Compound 20, Ac-Leu-Leu-Leu-Leu-Arg-Tle-Lys-4-Amba] (Ac-LLLLR[Tle]K-{NH(4-amidinobenzyl)})
fold improved Ki (inhibition constant) versus parent analogue [4]: 2.5 fold

CC(=O)N[C@@H](CC(C)C)C(=O)N[C@@H](CC(C)C)C(=O)N[C@@H](CC(C)C)C(=O)N[C@@H](CC(C)C)C(=O)N[C@@H](CCCN=C(N)N)C(=O)N[C@H](C(=O)N[C@@H](CCCCN)C(=O)NCc1ccc(C(=N)N)cc1)C(C)C [Compound 18, Ac-Leu-Leu-Leu-Leu-Arg-Val-Lys-4-Amba, reference compound] (Ac-LLLLRVK-{NH(4-amidinobenzyl)})
Ki [4]: ~0.5 nM

CC(C)[C@H](NC(=O)Cc1cccc(CN)c1)C(=O)N[C@@H](CCCNC(=N)N)C(=O)NCc1ccc(C(=N)N)cc1 [Compound 23, 3-AMe-Phac-Val-Arg-4-Amba]
Ki [4]: 48.2 nM

CC(C)[C@H](NC(=O)Cc1ccc(CN)cc1)C(=O)N[C@@H](CCCNC(=N)N)C(=O)NCc1ccc(C(=N)N)cc1 [Compound 24, 4-AMe-Phac-Val-Arg-4-Amba]
Ki [4]: 37.8 nM

hexa-D-arginine
protective effect against Pseudomonas aeruginosa exotoxin A [5]: protective effect
protective effect against anthrax toxin [6]: protective effect
